In brackets after ≈: the same amount, converted by molar mass.
Legend:
Mus musculus [1] = test: Anti-inflammatory activity in Swiss albino Mus musculus (mouse) assessed as inhibition of carrageenan-induced paw edema at 100 mg/kg, po administered 60 min prior to crrageenan-challenge measured at 270 min relative to control; format: functional
Enterococcus faecalis [2] = test: Antibacterial activity against Enterococcus faecalis ATCC 29212 after 24 hr by two-fold serial dilution method; format: functional; details: ATCC 29212, 24 h
Staphylococcus aureus [3] = test: Antibacterial activity against methicillin-resistant Staphylococcus aureus clinical isolate after 24 hr by two-fold serial dilution method; format: functional
Escherichia coli [4] = test: Antibacterial activity against Escherichia coli clinical isolate expressing extended spectrum beta-lactamase after 24 hr by two-fold serial dilution method; format: functional
Mus musculus [5] = test: Anti-inflammatory activity in Swiss albino Mus musculus (mouse) assessed as inhibition of carrageenan-induced paw edema at 100 mg/kg, po administered 60 min prior to crrageenan-challenge measured at 360 min relative to control; format: functional
Candida albicans = test: Antifungal activity against Candida albicans ATCC 10231 after 48 hr by two-fold serial dilution method; format: functional; details: ATCC 10231, 48 h
Enterococcus faecalis [6] = test: Antibacterial activity against Enterococcus faecalis clinical isolate after 24 hr by two-fold serial dilution method; format: functional
Staphylococcus aureus [7] = test: Antibacterial activity against Staphylococcus aureus ATCC 29213 after 24 hr by two-fold serial dilution method; format: functional; details: ATCC 29213, 24 h
Escherichia coli [8] = test: Antibacterial activity against Escherichia coli ATCC 25922 after 24 hr by two-fold serial dilution method; format: functional; details: ATCC 25922, 24 h
Mus musculus [9] = test: Ulcerogenic activity in p-benzoquinone-challenged Swiss albino Mus musculus (mouse) at 100 mg/kg, po administered 60 min prior to p-benzoquinone-challenge by microscopic analysis; format: toxicity, organism-based; design: dose 100 mg/kg, route oral; details: in vivo, 1 h
Pichia kudriavzevii = test: Antifungal activity against Pichia kudriavzevii ATCC 6258 after 48 hr by two-fold serial dilution method; format: functional; details: ATCC 6258, 48 h
Mus musculus [10] = test: Anti-inflammatory activity in Swiss albino Mus musculus (mouse) assessed as inhibition of carrageenan-induced paw edema at 100 mg/kg, po administered 60 min prior to crrageenan-challenge measured at 90 min relative to control; format: functional
Mus musculus [11] = test: Anti-inflammatory activity in Swiss albino Mus musculus (mouse) assessed as inhibition of carrageenan-induced paw edema at 100 mg/kg, po administered 60 min prior to crrageenan-challenge measured at 180 min relative to control; format: functional
Pseudomonas aeruginosa [12] = test: Antibacterial activity against Pseudomonas aeruginosa ATCC 27853 after 24 hr by two-fold serial dilution method; format: functional; details: ATCC 27853, 24 h
Mus musculus [13] = test: Analgesic activity in Swiss albino Mus musculus (mouse) assessed as inhibition of p-benzoquinone-induced writhing at 100 mg/kg, po administered 60 min prior to p-benzoquinone-challenge measured up to 15 min relative to control; format: functional
Pseudomonas aeruginosa [14] = test: Antibacterial activity against Pseudomonas aeruginosa cloinical isolate after 24 hr by two-fold serial dilution method; format: functional

| Compound | inhibition in vivo at 100 mg/kg (Mus musculus [1]) [%] | MIC (Enterococcus faecalis [2]) [µg/mL] | MIC (Staphylococcus aureus [3]) [µg/mL] | MIC (Escherichia coli [4]) [µg/mL] | inhibition in vivo at 100 mg/kg (Mus musculus [5]) [%] | MIC (Candida albicans) [µg/mL] | MIC (Enterococcus faecalis [6]) [µg/mL] | MIC (Staphylococcus aureus [7]) [µg/mL] | MIC (Escherichia coli [8]) [µg/mL] | Activity (Mus musculus [9]) | MIC (Pichia kudriavzevii) [µg/mL] | inhibition in vivo at 100 mg/kg (Mus musculus [10]) [%] | inhibition in vivo at 100 mg/kg (Mus musculus [11]) [%] | MIC (Pseudomonas aeruginosa [12]) [µg/mL] | inhibition in vivo at 100 mg/kg (Mus musculus [13]) [%] | MIC (Pseudomonas aeruginosa [14]) [µg/mL] |
| --- | --- | --- | --- | --- | --- | --- | --- | --- | --- | --- | --- | --- | --- | --- | --- | --- |
| COc1ccc(-c2ccc(=O)n(CCN3CCN(c4ccc(F)cc4)CC3)n2)cc1 | 22.9 | 64 (≈ 157 µM) | 128 (≈ 313 µM) | 64 (≈ 157 µM) | 18.3 | 32 (≈ 78.3 µM) | 64 (≈ 157 µM) | 64 (≈ 157 µM) | 64 (≈ 157 µM) | Toxic | 32 (≈ 78.3 µM) | 16.2 | 15.5 | 64 (≈ 157 µM) | 47.6 | 64 (≈ 157 µM) |
| COc1ccc(-c2ccc(=O)n(CCN3CCN(c4ccc(Cl)cc4)CC3)n2)cc1 | 27.5 | 64 (≈ 151 µM) | 128 (≈ 301 µM) | 64 (≈ 151 µM) | 26.2 | 32 (≈ 75.3 µM) | 64 (≈ 151 µM) | 64 (≈ 151 µM) | 64 (≈ 151 µM) | Toxic | 32 (≈ 75.3 µM) | 16.9 | 19.8 | 64 (≈ 151 µM) | 44.4 | 64 (≈ 151 µM) |
| C[C@@H]1[C@H](O)[C@@H](C)/C=C/C=C/C=C/C=C/C=C/C=C/C=C/[C@H](O[C@@H]2O[C@H](C)[C@@H](O)[C@H](N)[C@@H]2O)C[C@@H]2O[C@](O)(C[C@@H](O)C[C@@H](O)[C@H](O)CC[C@@H](O)C[C@@H](O)CC(=O)O[C@H]1C)C[C@H](O)[C@H]2C(=O)O [AMPHOTERICIN B] | – | – | – | – | – | < 0.25 | – | – | – | – | 0.5 (≈ 0.541 µM) | – | – | – | – | – |
| O=c1ccc(-c2ccccc2)nn1CCN1CCN(c2ccc(Cl)cc2)CC1 | 14.8 | 64 (≈ 162 µM) | 128 (≈ 324 µM) | 64 (≈ 162 µM) | 12.1 | 32 (≈ 81 µM) | 64 (≈ 162 µM) | 64 (≈ 162 µM) | 64 (≈ 162 µM) | Non-toxic | 32 (≈ 81 µM) | 16.2 | 14.9 | 64 (≈ 162 µM) | 23.3 | 64 (≈ 162 µM) |
| CC1(C)S[C@@H]2[C@H](NC(=O)[C@H](N)c3ccccc3)C(=O)N2[C@H]1C(=O)O [AMPICILLIN] | – | 2 (≈ 5.72 µM) | 32 (≈ 91.6 µM) | 64 (≈ 183 µM) | – | – | 4 (≈ 11.4 µM) | 2 (≈ 5.72 µM) | 8 (≈ 22.9 µM) | – | – | – | – | – | – | – |
| CC(=O)Oc1ccccc1C(=O)O [ASPIRIN] | – | – | – | – | – | – | – | – | – | Toxic | – | – | – | – | 45.9 | – |
| CC1COc2c(N3CCN(C)CC3)c(F)cc3c(=O)c(C(=O)O)cn1c23 (stereo unspecified) [OFLOXACIN] | – | 1 (≈ 2.77 µM) | 2 (≈ 5.53 µM) | 16 (≈ 44.3 µM) | – | – | 2 (≈ 5.53 µM) | 0.5 (≈ 1.38 µM) | – | – | – | – | – | – | – | 32 (≈ 88.6 µM) |
| COc1ccc(N2CCN(CCn3nc(-c4ccc(Cl)cc4)ccc3=O)CC2)cc1 | 18.5 | 64 (≈ 151 µM) | 128 (≈ 301 µM) | 64 (≈ 151 µM) | 15.5 | 32 (≈ 75.3 µM) | 64 (≈ 151 µM) | 64 (≈ 151 µM) | 64 (≈ 151 µM) | Non-toxic | 32 (≈ 75.3 µM) | 4.7 | 12.3 | 64 (≈ 151 µM) | 30.2 | 64 (≈ 151 µM) |
| O=c1ccc(-c2ccc(Cl)cc2)nn1CCN1CCN(c2ccc(Cl)cc2)CC1 | 31 | 64 (≈ 149 µM) | 128 (≈ 298 µM) | 64 (≈ 149 µM) | 28.2 | 32 (≈ 74.5 µM) | 64 (≈ 149 µM) | 64 (≈ 149 µM) | 64 (≈ 149 µM) | Non-toxic | 32 (≈ 74.5 µM) | 20.6 | 29.7 | 64 (≈ 149 µM) | 53.2 | 64 (≈ 149 µM) |
| COc1ccc(-c2ccc(=O)n(CCN3CCN(c4ccc(OC)cc4)CC3)n2)cc1 | 13.6 | 64 (≈ 152 µM) | 128 (≈ 304 µM) | 64 (≈ 152 µM) | 7.9 | 32 (≈ 76.1 µM) | 64 (≈ 152 µM) | 64 (≈ 152 µM) | 64 (≈ 152 µM) | Non-toxic | 32 (≈ 76.1 µM) | – | – | 64 (≈ 152 µM) | 5.6 | 64 (≈ 152 µM) |
| O=c1ccc(-c2ccc(Cl)cc2)nn1CCN1CCN(c2ccccc2)CC1 | 7.4 | 64 (≈ 162 µM) | 128 (≈ 324 µM) | 64 (≈ 162 µM) | – | 32 (≈ 81 µM) | 64 (≈ 162 µM) | 64 (≈ 162 µM) | 64 (≈ 162 µM) | Non-toxic | 32 (≈ 81 µM) | – | 1.4 | 64 (≈ 162 µM) | 20.1 | 64 (≈ 162 µM) |
| OC(Cn1cncn1)(Cn1cncn1)c1ccc(F)cc1F [FLUCONAZOLE] | – | – | – | – | – | 1 (≈ 3.27 µM) | – | – | – | – | 64 (≈ 209 µM) | – | – | – | – | – |
| COc1ccc(N2CCN(CCn3nc(-c4ccccc4)ccc3=O)CC2)cc1 | – | 64 (≈ 164 µM) | 128 (≈ 328 µM) | 64 (≈ 164 µM) | – | 32 (≈ 81.9 µM) | 64 (≈ 164 µM) | 64 (≈ 164 µM) | 64 (≈ 164 µM) | Non-toxic | 32 (≈ 81.9 µM) | – | – | 64 (≈ 164 µM) | 8.6 | 64 (≈ 164 µM) |
| O=c1ccc(-c2ccccc2)nn1CCN1CCN(c2ccccc2)CC1 | 6.4 | 64 (≈ 178 µM) | 128 (≈ 355 µM) | 64 (≈ 178 µM) | 3.1 | 32 (≈ 88.8 µM) | 64 (≈ 178 µM) | 64 (≈ 178 µM) | 64 (≈ 178 µM) | Non-toxic | 32 (≈ 88.8 µM) | – | – | 64 (≈ 178 µM) | 10.7 | 64 (≈ 178 µM) |
| COc1ccc(-c2ccc(=O)n(CCN3CCN(c4ccccc4)CC3)n2)cc1 | – | 64 (≈ 164 µM) | 128 (≈ 328 µM) | 64 (≈ 164 µM) | – | 32 (≈ 81.9 µM) | 64 (≈ 164 µM) | 64 (≈ 164 µM) | 64 (≈ 164 µM) | Non-toxic | 32 (≈ 81.9 µM) | 11.9 | 12.6 | 64 (≈ 164 µM) | 18.4 | 64 (≈ 164 µM) |
